Data reported in patent US20230293453A1, “SPERMIDINE AND USES THEREOF” (TLL THE LONGEVITY LABS GMBH, priority 2020, published 2023).

How the values were obtained:
[1] = test system: ZSF1 obese rats; experiment: Myocardial nicotinamide and NAD+ levels by mass spectrometry, cardiometabolic syndrome model; assay type: in vivo, rat; conditions: 40 mM nicotinamide, with or without 3 mM spermidine, in drinking water for 14 weeks
Protocol: Cardiometabolic syndrome model: ZSF1 lean and obese rats of both genders were purchased at the age of 5 weeks from the Charles River Laboratories (Kingston, USA). Eight-week-old ZSF1 obese rats were divided into three weight-matched and equally sized/gender-balanced groups: group 1 received regular drinking water (non-treated control), group 2 received regular drinking water supplemented with 40 mM nicotinamide (i.e. 0.5% w/v), and group 3 was administered the combination of 40 mM nicotinamide and 3 mM spermidine (of synthetical origin) in drinking water for a period of 14 weeks. Water as well as food intake were monitored regularly. Age-matched untreated ZSF1 obese and lean rats served as controls. The mass spectrometric metabolomic analysis of nicotinamide and NAD^+ in rat myocardium was performed as described previously ([…]., et al. Aging (Albany NY) 11(2019):4783-4800). About 30 mg of tissue was weighed and solubilized in tubes with ceramic beads using 1 ml of cold lysate buffer (methanol:water ratio was 9:1; at -20° C.). Tissue samples were then homogenized three times for 20 s at 5.500 rpm using a Precellys 24 tissue homogenizer followed by centrifugation for 10 min at 15.000 g and 4° C. […] Peak detection and integration of the analytes were performed using the Agilent Mass Hunter quantitative software (B.07.01). […]

[2] = test system: Aged C57BL/6J male mice; experiment: Diastolic function by echocardiography, aging model; assay type: in vivo, mouse; conditions: 24 mM nicotinamide, with or without 3 mM spermidine, in drinking water for 4 months, FIG. 2a
Protocol: Aging model: Aged C57BL/6J male mice were purchased from the Charles River Laboratories (Sulzfeld, Germany) at the age of 18 months and fed standard chow. Supplementation of 24 mM nicotinamide (i.e. 0.3% w/v, changed two times per week) and of spermidine (i.e. 3 mM final concentration at pH 7.2, changed two times per week) in the regular drinking water was conducted at 20 months of age for a period of 4 months. […] Transthoracic echocardiography was performed using high resolution micro-imaging system equipped with a 24- and 55-MHz linear array transducers for rats and mice, respectively, as described (Eisenberg et al. (2016), Nat Med 22(12): 1428-1438). Briefly, lightly anesthetized mice (0.5% isoflurane and 99.5% 02) were placed in the supine position on a temperature-controlled heating platform to maintain their body temperature at 37° C. Diastolic function was assessed using pulsed-wave and tissue Doppler imaging to determine the ratio between peak early-filling velocity of transmitral flow (E) and the corresponding mitral valve annulus velocity (e′), respectively.

[3] = test system: Dahl salt-sensitive male rats; experiment: Diastolic function by hemodynamic pressure-volume measurement, salt-induced hypertensive heart disease model; assay type: in vivo, rat; conditions: Dahl rats on high-salt diet; 40 mM nicotinamide in drinking water for 12 weeks; FIG. 2b
Excerpt: Salt-induced hypertensive heart disease model: Dahl salt-sensitive male rats (n=24) were purchased at the age of 4 weeks from the Charles River Laboratories (Kingston, USA). Eight rats were fed the low-salt diet containing 0.3% NaCl (AIN-76A, Research Diets, Inc. USA) throughout the experiment and served as a healthy control group. Low-salt diet was fed also to the remaining 16 Dahl rats until the age of 7 weeks, when the diet was switched to a high-salt diet (AIN-76A with 8% NaCl, Research Diets, Inc. USA), and the rats were divided into two weight-matched cohorts each consisting of two equally sized groups (n=8 animals per group); group 1 received regular drinking water (non-treated control), while group 2 received regular drinking water supplemented with 40 mM nicotinamide (i.e. 0.5% w/v) for a period of 12 weeks. […] The heart rate was monitored by an electrocardiogram (Animal Bio Amp, FE136) and kept at 350-400 bpm throughout the experiment. […] Signals were continuously acquired (MPVS PL3508 PowerLab 8/35), digitized at 2 kHz (ML880 PowerLab 16/30), and analyzed offline (LabChart 8 Pro). After a stabilization period of 10 min, left ventricular end-diastolic pressure (EDP), a baseline parameter of diastolic function, was measured and aver-aged from ten consecutive beats, with ventilation suspended at end-expiration. […]

[4] = test system: ZSF1 obese rats; experiment: Diastolic function by echocardiography, cardiometabolic syndrome model; assay type: in vivo, rat; conditions: 40 mM nicotinamide, with or without 3 mM spermidine, in drinking water for 14 weeks, FIG. 2c
Protocol: Cardiometabolic syndrome model: ZSF1 lean and obese rats of both genders were purchased at the age of 5 weeks from the Charles River Laboratories (Kingston, USA). Eight-week-old ZSF1 obese rats were divided into three weight-matched and equally sized/gender-balanced groups: group 1 received regular drinking water (non-treated control), group 2 received regular drinking water supplemented with 40 mM nicotinamide (i.e. 0.5% w/v), and group 3 was administered the combination of 40 mM nicotinamide and 3 mM spermidine (of synthetical origin) in drinking water for a period of 14 weeks. Water as well as food intake were monitored regularly. Age-matched untreated ZSF1 obese and lean rats served as controls. Transthoracic echocardiography was performed using high resolution micro-imaging system equipped with a 24- and 55-MHz linear array transducers for rats and mice, respectively, as described (Eisenberg et al. (2016), Nat Med 22(12): 1428-1438). […] Diastolic function was assessed using pulsed-wave and tissue Doppler imaging to determine the ratio between peak early-filling velocity of transmitral flow (E) and the corresponding mitral valve annulus velocity (e′), respectively. This measurement was conducted according to the method of item 2.1.1, with the exception that the rats were lightly anesthetized with 1-2% isoflurane and 98-99% 02.

[5] = test system: Aged C57BL/6J male mice; experiment: Cardiac hypertrophy by gravimetry, aging model; assay type: in vivo, mouse; conditions: 24 mM nicotinamide, with or without 3 mM spermidine, in drinking water for 4 months, FIG. 3a
Protocol: Aging model: Aged C57BL/6J male mice were purchased from the Charles River Laboratories (Sulzfeld, Germany) at the age of 18 months and fed standard chow. Supplementation of 24 mM nicotinamide (i.e. 0.3% w/v, changed two times per week) and of spermidine (i.e. 3 mM final concentration at pH 7.2, changed two times per week) in the regular drinking water was conducted at 20 months of age for a period of 4 months. […] The heart was harvested and weighed, obtaining the heart weight (HW). For normalisation, the weight was subsequently divided by the length of the left tibia bone (TL), resulting in the ratio HW/TL.

[6] = test system: Dahl salt-sensitive male rats; experiment: Cardiac hypertrophy by gravimetry, salt-induced hypertensive heart disease model; assay type: in vivo, rat; conditions: Dahl rats on high-salt diet; 40 mM nicotinamide in drinking water for 12 weeks; FIG. 3b
Excerpt: Salt-induced hypertensive heart disease model: Dahl salt-sensitive male rats (n=24) were purchased at the age of 4 weeks from the Charles River Laboratories (Kingston, USA). Eight rats were fed the low-salt diet containing 0.3% NaCl (AIN-76A, Research Diets, Inc. USA) throughout the experiment and served as a healthy control group. Low-salt diet was fed also to the remaining 16 Dahl rats until the age of 7 weeks, when the diet was switched to a high-salt diet (AIN-76A with 8% NaCl, Research Diets, Inc. USA), and the rats were divided into two weight-matched cohorts each consisting of two equally sized groups (n=8 animals per group); group 1 received regular drinking water (non-treated control), while group 2 received regular drinking water supplemented with 40 mM nicotinamide (i.e. 0.5% w/v) for a period of 12 weeks. The heart was harvested and weighed, obtaining the heart weight (HW). For normalisation, the weight was subsequently divided by the length of the left tibia bone (TL), resulting in the ratio HW/TL.

[7] = test system: ZSF1 obese rats; experiment: Cardiac hypertrophy by gravimetry, cardiometabolic syndrome model; assay type: in vivo, rat; conditions: 40 mM nicotinamide, with or without 3 mM spermidine, in drinking water for 14 weeks, FIG. 3c
Protocol: Cardiometabolic syndrome model: ZSF1 lean and obese rats of both genders were purchased at the age of 5 weeks from the Charles River Laboratories (Kingston, USA). Eight-week-old ZSF1 obese rats were divided into three weight-matched and equally sized/gender-balanced groups: group 1 received regular drinking water (non-treated control), group 2 received regular drinking water supplemented with 40 mM nicotinamide (i.e. 0.5% w/v), and group 3 was administered the combination of 40 mM nicotinamide and 3 mM spermidine (of synthetical origin) in drinking water for a period of 14 weeks. Water as well as food intake were monitored regularly. Age-matched untreated ZSF1 obese and lean rats served as controls. The heart was harvested and weighed, obtaining the heart weight (HW). For normalisation, the weight was subsequently divided by the length of the left tibia bone (TL), resulting in the ratio HW/TL.

[8] = test system: Dahl salt-sensitive male rats; experiment: Exercise capacity by exercise calorimetry, salt-induced hypertensive heart disease model; assay type: in vivo, rat; conditions: Dahl rats on high-salt diet; 40 mM nicotinamide in drinking water for 12 weeks; treadmill peak effort; FIG. 4a
Excerpt: Salt-induced hypertensive heart disease model: Dahl salt-sensitive male rats (n=24) were purchased at the age of 4 weeks from the Charles River Laboratories (Kingston, USA). Eight rats were fed the low-salt diet containing 0.3% NaCl (AIN-76A, Research Diets, Inc. USA) throughout the experiment and served as a healthy control group. Low-salt diet was fed also to the remaining 16 Dahl rats until the age of 7 weeks, when the diet was switched to a high-salt diet (AIN-76A with 8% NaCl, Research Diets, Inc. USA), and the rats were divided into two weight-matched cohorts each consisting of two equally sized groups (n=8 animals per group); group 1 received regular drinking water (non-treated control), while group 2 received regular drinking water supplemented with 40 mM nicotinamide (i.e. 0.5% w/v) for a period of 12 weeks. Rats were subjected to peak effort on a closed-chamber treadmill at an inclination of 10° coupled to a gas analyzer (CaloTreadmill). […] Calorimetric parameters, such as relative oxygen consumption (ΔVO2) and carbon dioxide production (ΔVCO2) were continuously measured at 0.2 Hz intervals during treadmill running. Maximal oxygen consumption (VO2max) and run distance were determined at the point at which oxygen uptake reached a plateau during exhaustive workout/exercise.

[9] = test system: ZSF1 obese rats; experiment: Exercise capacity by exercise calorimetry, cardiometabolic syndrome model; assay type: in vivo, rat; conditions: 40 mM nicotinamide, with or without 3 mM spermidine, in drinking water for 14 weeks, treadmill peak effort, FIG. 4b
Protocol: Eight-week-old ZSF1 obese rats were divided into three weight-matched and equally sized/gender-balanced groups: group 1 received regular drinking water (non-treated control), group 2 received regular drinking water supplemented with 40 mM nicotinamide (i.e. 0.5% w/v), and group 3 was administered the combination of 40 mM nicotinamide and 3 mM spermidine (of synthetical origin) in drinking water for a period of 14 weeks. Water as well as food intake were monitored regularly. Age-matched untreated ZSF1 obese and lean rats served as controls. Rats were subjected to peak effort on a closed-chamber treadmill at an inclination of 10° coupled to a gas analyzer (CaloTreadmill). […] The exercise session ended at the maximal fatigue, which was defined as the lack of ability to maintain running speed despite being in contact with the electric shock for more than 5 seconds. Calorimetric parameters, such as relative oxygen consumption (ΔVO2) and carbon dioxide production (ΔVCO2) were continuously measured at 0.2 Hz intervals during treadmill running. Maximal oxygen consumption (VO2max) and run distance were determined at the point at which oxygen uptake reached a plateau during exhaustive workout/exercise.

[10] = test system: Dahl salt-sensitive male rats; experiment: Lung congestion by gravimetry, salt-induced hypertensive heart disease model; assay type: in vivo, rat; conditions: Dahl rats on high-salt diet; 40 mM nicotinamide in drinking water for 12 weeks; FIG. 5a
Excerpt: Salt-induced hypertensive heart disease model: Dahl salt-sensitive male rats (n=24) were purchased at the age of 4 weeks from the Charles River Laboratories (Kingston, USA). Eight rats were fed the low-salt diet containing 0.3% NaCl (AIN-76A, Research Diets, Inc. USA) throughout the experiment and served as a healthy control group. Low-salt diet was fed also to the remaining 16 Dahl rats until the age of 7 weeks, when the diet was switched to a high-salt diet (AIN-76A with 8% NaCl, Research Diets, Inc. USA), and the rats were divided into two weight-matched […] groups (n=8 animals per group); group 1 received regular drinking water (non-treated control), while group 2 received regular drinking water supplemented with 40 mM nicotinamide (i.e. 0.5% w/v) for a period of 12 weeks.
(§1) The lung was harvested and weighed, obtaining the lung weight (LW). For normalisation, the weight was subsequently divided by the length of the left tibia bone (TL), resulting in the ratio LW/TL.

[11] = test system: ZSF1 obese rats; experiment: Lung congestion by gravimetry, cardiometabolic syndrome model; assay type: in vivo, rat; conditions: 40 mM nicotinamide, with or without 3 mM spermidine, in drinking water for 14 weeks, FIG. 5b
Protocol: (§2) Cardiometabolic syndrome model: ZSF1 lean and obese rats of both genders were purchased at the age of 5 weeks from the Charles River Laboratories (Kingston, USA). Eight-week-old ZSF1 obese rats were divided into three weight-matched and equally sized/gender-balanced groups: group 1 received regular drinking water (non-treated control), group 2 received regular drinking water supplemented with 40 mM nicotinamide (i.e. 0.5% w/v), and group 3 was administered the combination of 40 mM nicotinamide and 3 mM spermidine (of synthetical origin) in drinking water for a period of 14 weeks. Water as well as food intake were monitored regularly. Age-matched untreated ZSF1 obese and lean rats served as controls.
as §1
This measurement was conducted according to the method of item 2.4.1.

[12] = test system: ZSF1 obese rats; experiment: Fasting glucose determination, cardiometabolic syndrome model; assay type: in vivo, rat; conditions: 10 weeks of treatment (8 weeks vs. 18 weeks of age), tail vein blood, FIG. 6a
Protocol: as §2
The basal fasting blood glucose level was determined by collecting a drop of blood from the tail vein. Blood droplet was applied to a test strip that was inserted into a glucose analyzer (glucometer, Accu-Chek Performa). The sampling and measurement was conducted at the age of 8 weeks (baseline) and at the age of 18 weeks. The fold-change was calculated by dividing the values form 18-weeks old animals and 8-weeks old animals.

[13] = test system: ZSF1 obese rats; experiment: Fasting insulin determination (ELISA), cardiometabolic syndrome model; assay type: in vivo, rat; conditions: 10 weeks of treatment (8 weeks vs. 18 weeks of age), plasma, 6-h fasted, FIG. 6b
Protocol: as §2
Fasted blood samples were collected from the clavicular vena plexus/jugular vein of 6-h fasted (6 AM-12 AM) and lightly anesthetized rats (2% isoflurane and 98% O2), whose body temperature was maintained at 37° C. using a temperature-controlled heating platform. Fasting insulin was measured in plasma using ultrasensitive rat ELISA kits (Crystal Chem) according to the manufacturer's protocol. The sampling and measurement was conducted at the age of 8 weeks (baseline) and at the age of 18 weeks. The fold-change was calculated by dividing the values form 18-weeks old animals and 8-weeks old animals.

[14] = literature: Gale et al. 2004, Chen et al. 2015, Poyan et al. 2018; cited from earlier work
[15] = test system: obese rats; experiment: Intraperitoneal glucose tolerance test, spermidine alone in obese rats; assay type: in vivo, rat; conditions: 10 weeks of spermidine alone, 1 g/kg glucose i.p., 12-h fasted, age 18 weeks, compared with control obese rats, FIG. 8
Protocol: Intraperitoneal glucose tolerance test was performed at 6 AM from 12-h fasted rats. During the experiment, rats were singly housed in empty cages without food, water or bed-ding. The basal fasting blood glucose level was determined by collecting a drop of blood from the tail vein. Blood droplet was applied onto a test strip that was inserted into a glucose analyzer (glucometer, Accu-Chek Performa). Rats were then injected intraperitoneally with 1 g of glucose per kg fasting body mass, and blood glucose levels were determined 15, 30, 60, 90 and 120 min after glucose. The sampling and measurement were conducted at the age of 18 weeks.

SMILES	myocardial level of nicotinamide (NAM) ([1]; FIG. 1 left)	myocardial level of nicotinamide adenine dinucleotide+ (NAD+) ([1]; FIG. 1 right)	quotient E/e' (measure of diastolic dysfunction) [2]	left ventricular end-diastolic pressure (EDP), marker for diastolic dysfunction [3]	quotient E/e' (measure of diastolic dysfunction) [4]	heart weight-to-tibia length ratio (HW/TL), marker of cardiac hypertrophy [5]	heart weight-to-tibia length ratio (HW/TL), marker of cardiac hypertrophy [6]	heart weight-to-tibia length ratio (HW/TL), marker of cardiac hypertrophy [7]	maximal oxygen consumption (VO2max) [8]	run distance [8]	maximal oxygen consumption (VO2max) [9]	run distance [9]	ratio LW/TL (lung weight to tibia length), measure of lung congestion [10]	ratio LW/TL (lung weight to tibia length), measure of lung congestion [11]	fasting glucose level (fold-change 18 weeks vs 8 weeks) [12]	fasting insulin level (fold-change 18 weeks vs 8 weeks) [13]	tolerability at high doses during chronical administration [14]	glucose clearance curve (also as AUC) [15]
NC(=O)c1cccnc1 [nicotinamide]	significantly increased	significantly increased	reduced	reduced	reduced	reduced	reduced to levels similar to the control	reduced	increased	increased	increased	increased	decrease	compensated this effect	increased	increased	well-tolerated	–
NCCCCNCCCN [spermidine]	–	–	–	–	–	–	–	–	–	–	–	–	–	–	no significant influence	no significant influence	–	did not change
